Experimental data as given in patent US6518262B1, “22R-hydroxycholesta-8, 14-diene derivatives for the inhibition of meiosis” (Akzo Nobel N.V., priority 1999, dated 2003).

Test system: cumulus enclosed oocytes (CEO)
Assay: Oocyte assay, antagonistic testing, inhibition of 22S-hydroxy-FF-Mas induced maturation in cumulus enclosed oocytes (CEO assay)
Type: cell-based, mice (B6D2-F1, strain C57BL×DBA)
Conditions: 22S-hydroxy-FF-Mas 5 μM, control (22S-hydroxy-FF-Mas alone) in brackets
Protocol: The meiosis inhibiting activity of the 22R-hydroxycholesta-8,14-diene derivatives of the invention is measured in an in vitro oocyte assay as the ability to inhibit the FF-Mas or 22S-hydroxy-FF-Mas induced maturation, in hypoxanthine media, in denuded oocytes (DO) or cumulus enclosed oocytes (CEO), respectively. Natural resumption of meiosis can be mimicked in vitro by addition of FF-Mas or other agonists to the culture medium containing hypoxanthine. The antagonistic activity of the compounds is measured as the ability to inhibit the FF-Mas or 22S-hydroxy-FF-Mas induced oocyte maturation in denuded oocytes or cumulus enclosed oocytes, respectively, in vitro. Ovaries are obtained from immature female mice (B6D2-F1, strain C57BL×DBA). At the age of 19, 20 or 21 days the mice are injected subcutaneously with a single dose of 20 IU follicle stimulating hormone (Humegon, Organon, The Netherlands) in saline. Forty-eight hours after follicle stimulating hormone injection mice are killed by cervical dislocation. The ovaries are removed, freed of extraneous tissue and placed in a multidish containing 0.5 ml preparation medium at 37° C. L-15 Leibovitz medium (Gibco, pH 7.3±0.1) supplemented with bovine serum albumin (3 mg·ml^−1), L-glutamine (0.23 mM), sodium pyruvate (2 mM) and hypoxanthine (4 mM) is used as preparation medium. The antral follicles of the ovaries are punctured under a dissecting microscope using two 27-gauge needles attached to two 1 ml syringes. […] At t=0 the number of oocytes with intact germinal vesicles (GV) or germinal vesicle break-down (GVBD) is counted under an inverted microscope with differential interference contrast equipment. […] At the end of the culture period the number of oocytes with GV or GVBD per group is counted. For statistical analysis the percentage germinal vesicle breakdown is calculated for each group in one block. These percentages are subjected to arcsin transformation, and differences between control and test compounds are analyzed by an ANOVA test for a randomized block design. […]

SMILES: CC(C)CC[C@@H](O)[C@@H](C)[C@H]1CC=C2C3=C(CC[C@@]21C)[C@@]1(C)CC[C@H](O)C(C)(C)[C@@H]1CC3 [Example 1, (3β,5α,20S,22R)-4,4-Dimethylcholesta-8,14-diene-3,22-diol]
- % GVBD CEO assay exp. (compound tested 5 M): 10(93)^3%

SMILES: CC(C)=CC[C@@H](O)[C@@H](C)[C@H]1CC=C2C3=C(CC[C@@]21C)[C@@]1(C)CC[C@H](O)C(C)(C)[C@@H]1CC3 [Example 2, (3β,5α,20S,22R)-4,4-Dimethylcholesta-8,14,24-triene-3,22-diol]
- % GVBD CEO assay exp.: 0(84)^4%
